{"source": "patent US20070129379A1", "about": "(priority 2005, published 2007)", "data": [{"target": "T1, HIV-integrase (Human immunodeficiency virus type 1 group M subtype B, UniProt P12497)", "T1 construct": "Recombinant integrase (0.26 ng) was incubated with the beads", "experiment": "HIV-Integrase Inhibition Activity (SPA strand transfer assay)", "assay_type": "biochemical", "conditions": "recombinant integrase, biotin labeled substrate DNA on SPA beads, P33 labeled target DNA", "procedure": "HIV-Integrase Inhibition Activity. To evaluate in-vitro activity against HIV-integrase, 5 pmole of biotin labeled substrate DNA was bound to 100 μg of Streptavidin coated PVT SPA beads (Amersham Pharmacia Biotech). Recombinant integrase (0.26 ng) was incubated with the beads for 90 min at 37° C. Unbound enzyme was removed by washing the complex followed by addition of inhibitors and 0.1 fmol of P33 labeled target DNA. The reaction was stopped by adding EDTA to a final concentration of 10 mM. Samples were counted in TopCountNXT (Packard) and the CPM was used as a measure of integration. The reaction condition was as described in A. Engleman and R. Craige, J. Virol. 69, 5908-5911 (1995). The sequences of substrate and target DNA were described in Nucleic Acid Research 22, 1121-1122 (1994). Activity equal to A refers to a compound having IC50=0.002 to 0.10 μM while B and C denote compounds having IC50=0.1 to 1.0 μM and IC50≧1.0 μM respectively.", "units": {"IC50": "µM"}, "values": [{"molecule": "COC(C)(C)c1nc(C(=O)NCc2ccc(F)cc2)c(O)c(=O)n1C", "note": "[Example 1, N-(4-Fluorobenzyl)-5-hydroxy-2-(2-methoxypropan-2-yl)-1-methyl-6-oxo-1,6-dihydropyrimidine-4-carboxamide]", "IC50": "0.002 to 0.1"}, {"molecule": "COC(C)(C)c1nc(C(=O)NCc2ccc(F)c(C)c2)c(O)c(=O)n1C", "note": "[Example 2]", "IC50": "0.002 to 0.1"}, {"molecule": "CC(C)(C)c1nc(O)c(O)c(C(=O)NCc2ccc(F)cc2)n1", "note": "[Example 3, 2-tert-Butyl-5-hydroxy-6-oxo-1,6-dihydro-pyrimidine-4-carboxylic acid 4-fluoro-benzylamide]", "IC50": "0.002 to 0.1"}, {"molecule": "Cn1c(C(C)(C)C)nc(C(=O)NCc2ccc(F)cc2)c(O)c1=O", "note": "[Example 4, 2-tert-Butyl-5-hydroxy-1-methyl-6-oxo-1,6-dihydro-pyrimidine-4-carboxylic acid 4-fluoro-benzylamide]", "IC50": "0.002 to 0.1"}, {"molecule": "CSCCCCC(C)(C)c1nc(C(=O)NCc2ccc(F)cc2)c(O)c(=O)n1C", "note": "[Example 5]", "IC50": "0.002 to 0.1"}, {"molecule": "Cn1c(C2(C)CCCS2)nc(C(=O)NCc2ccc(F)cc2)c(O)c1=O", "note": "(stereo not drawn) [Example 6, N-(4-Fluorobenzyl)-5-hydroxy-1-methyl-2-(2-methyl-tetrahydrothiophen-2-yl)-6-oxo-1,6-dihydropyrimidine-4-carboxamide]", "IC50": "0.002 to 0.1"}, {"molecule": "Cn1c(C2(C)CCCS2)nc(C(=O)NCc2ccc(F)cc2-n2cncn2)c(O)c1=O", "note": "(stereo not drawn) [Example 7, N-(4-Fluoro-2-(1H-1,2,4-triazol-1-yl)benzyl)-5-hydroxy-1-methyl-2-(2-methyl-tetrahydrothiophen-2-yl)-6-oxo-1,6-dihydropyrimidine-4-carboxamide]", "IC50": "0.002 to 0.1"}, {"molecule": "Cn1c(C2(C)CCCS2)nc(C(=O)NCc2ccc(F)cc2S(C)(=O)=O)c(O)c1=O", "note": "(stereo not drawn) [Example 8]", "IC50": "0.002 to 0.1"}, {"molecule": "Cn1c(C2(C)CCCO2)nc(C(=O)NCc2ccc(F)cc2)c(O)c1=O", "note": "(stereo not drawn) [Example 9]", "IC50": "0.002 to 0.1"}, {"molecule": "Cn1c(C2(C)CCCO2)nc(C(=O)NCc2ccc(F)cc2-n2cncn2)c(O)c1=O", "note": "(stereo not drawn) [Example 10]", "IC50": "0.002 to 0.1"}, {"molecule": "Cn1c(C2(C)CCCO2)nc(C(=O)NCc2ccc(F)cc2S(C)(=O)=O)c(O)c1=O", "note": "(stereo not drawn) [Example 11]", "IC50": "0.002 to 0.1"}, {"molecule": "Cn1c(C2(OCCO)CCC2)nc(C(=O)NCc2ccc(F)cc2)c(O)c1=O", "note": "[Example 12, 5-Hydroxy-2-[1-(2-hydroxy-ethoxy)-cyclobutyl]-1-methyl-6-oxo-1,6-dihydro-pyrimidine-4-carboxylic acid 4-fluoro-benzylamide]", "IC50": "0.002 to 0.1"}, {"molecule": "Cn1c(C2(OCCO)CCC2)nc(C(=O)NCc2ccc(F)cc2-n2cncn2)c(O)c1=O", "note": "[Example 13]", "IC50": "0.002 to 0.1"}, {"molecule": "CSCCOC1(c2nc(C(=O)NCc3ccc(F)cc3-n3cncn3)c(O)c(=O)n2C)CCC1", "note": "[Example 14, N-(4-Fluoro-2-(1H-1,2,4-triazol-1-yl)benzyl)-5-hydroxy-1-methyl-2-(1-(2-(methylthio)-ethoxy)cyclobutyl)-6-oxo-1,6-dihydropyrimidine-4-carboxamide]", "IC50": "0.002 to 0.1"}, {"molecule": "COCCOC1(c2nc(C(=O)NCc3ccc(F)cc3)c(O)c(=O)n2C)CCC1", "note": "[Example 15, N-(4-Fluorobenzyl)-5-hydroxy-2-(1-(2-methoxyethoxy)cyclobutyl)-1-methyl-6-oxo-1,6-dihydropyrimidine-4-carboxamide]", "IC50": "0.002 to 0.1"}, {"molecule": "COCCOC1(c2nc(C(=O)NCc3ccc(F)cc3-n3cncn3)c(O)c(=O)n2C)CCC1", "note": "[Example 16, N-(4-Fluoro-2-(1H-1,2,4-triazol-1-yl)benzyl)-5-hydroxy-2-(1-(2-methoxyethoxy)cyclobut-yl)-1-methyl-6-oxo-1,6-dihydropyrimidine-4-carboxamide]", "IC50": "0.002 to 0.1"}, {"molecule": "COCCOC1(c2nc(C(=O)NCc3ccc(F)cc3S(C)(=O)=O)c(O)c(=O)n2C)CCC1", "note": "[Example 17, N-(4-Fluoro-2-(methylsulfonyl)benzyl)-5-hydroxy-2-(1-(2-methoxyethoxy)cyclobutyl)-1-methyl-6-oxo-1,6-dihydropyrimidine-4-carboxamide]", "IC50": "0.002 to 0.1"}, {"molecule": "COCCOC1(c2nc(C(=O)NCc3ccc(F)cc3S(=O)(=O)N(C)C)c(O)c(=O)n2C)CCC1", "note": "[Example 18]", "IC50": "0.002 to 0.1"}]}]}
